Data published in publication PMC10530836, “Synthesis, Molecular Docking, and Biological Evaluation of Novel Anthranilic Acid Hybrid and Its Diamides as Antispasmodics” (International Journal of Molecular Sciences, 2023).
Like-named read-outs stand apart in the source and are kept apart here.

Columns and labels:
MTT cell viability assay [1] = assay type: cell-based; conditions: human, 72 h exposure, ± SD, read-out: In vitro cytotoxicity IC50
Experimental: (§1) To evaluate the biocompatibility of the hybrid compounds, their in vitro antiproliferative activity was assessed in a panel of human malignant cell lines of different origin (K-562 and LAMA-84 suspension-growing myeloid leukemia cells, positive for the Philadelphia chromosome, and the urothelial bladder carcinoma cell line T-24 of adherent type). Non-malignant murine fibroblast cells (CCL-1) were also used as a screening platform. All cell lines were purchased from the German Collection of Microorganisms and Cell Cultures (DSMZ GmbH, Braunschweig, Germany). Cell cultures were cultivated in a growth medium RPMI 1640 supplemented with 10% fetal bovine serum (FBS), and 5% L-glutamine and were incubated under standard conditions of 37 °C and 5% humidified CO2 atmosphere. The effects of the newly synthesized anthranilic derivatives on cell viability were measured using a validated colorimetric assay for evaluating cell viability, known as the Mosmann MTT method. Exponential-phased cells were harvested and seeded (100 μL/well) in 96-well plates at the appropriate density (3 × 10^5 for the suspension cultures LAMA-84 and K-562 and 1.5 × 10^5 for the adherent T-24 and CCL-1 cells). Following a 24 h incubation, cells were treated with various concentrations of the experimental compounds in the concentration range of 200–12.5 μM. After an exposure time of 72 h, filter-sterilized MTT substrate solution (5 mg/mL in PBS) was added to each well of the culture plate. A further 2–4 h incubation allowed for the formation of purple insoluble formazan crystals. The latter was dissolved in isopropyl alcohol solution containing 5% formic acid prior to absorbance measurement at 550 nm. Collected absorbance values were blanked against MTT and isopropanol solution and normalized to the mean value of untreated control (100% cell viability).

human albumin = molecular target: T1, human albumin (Homo sapiens, UniProt P02768); experiment: Inhibition of albumin denaturation (anti-inflammatory activity); assay type: biochemical; conditions: heat-induced denaturation
T1 construct: purchased Octapharma (IP) SPRL Albunorm 20
T1 sequence (P02768 25-609): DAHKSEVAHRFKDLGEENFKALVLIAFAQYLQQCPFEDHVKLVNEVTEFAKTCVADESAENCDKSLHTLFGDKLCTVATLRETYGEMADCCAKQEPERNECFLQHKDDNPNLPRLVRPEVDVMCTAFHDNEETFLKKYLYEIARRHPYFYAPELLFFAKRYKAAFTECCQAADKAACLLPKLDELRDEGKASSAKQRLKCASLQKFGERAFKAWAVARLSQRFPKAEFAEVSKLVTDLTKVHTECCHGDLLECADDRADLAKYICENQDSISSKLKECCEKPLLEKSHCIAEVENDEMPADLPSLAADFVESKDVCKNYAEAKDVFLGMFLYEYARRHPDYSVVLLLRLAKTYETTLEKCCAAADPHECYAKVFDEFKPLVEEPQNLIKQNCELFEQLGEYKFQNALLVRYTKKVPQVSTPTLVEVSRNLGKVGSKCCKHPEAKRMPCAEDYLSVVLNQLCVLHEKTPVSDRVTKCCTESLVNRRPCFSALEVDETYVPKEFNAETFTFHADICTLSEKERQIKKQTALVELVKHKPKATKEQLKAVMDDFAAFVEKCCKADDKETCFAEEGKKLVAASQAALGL
Experimental: Anti-denaturation assay was conducted as described by Kumari et al. with slight modifications. The reaction mixture consisted of 0.5 mL of 5% aqueous solution of human albumin (Albunorm 20, Octapharma (IP) SPRL, 1070 Anderlecht, Belgium) and 0.2 mL of the tested compound, dissolved in DMSO, at different concentrations (20–500 μg/mL). The samples were incubated at 37 °C for 15 min. After that, 2.5 mL phosphate-buffered saline (pH 6.3) was added to each tube and the samples were heated for 30 min to 80 °C and then cooled for 5 min. Turbidity was measured spectrophotometrically at 660 nm (Cary 60 UV-Vis, Agilent Technologies, Santa Clara, CA, USA). For the blank sample, a mixture of 2.5 mL buffer and 0.2 mL DMSO was used instead of the compounds, while the product control test lacked the compounds’ concentration having 0.5 mL serum albumin, and 2.5 mL buffer only. The percentage inhibition of protein denaturation was calculated as follows:Percentage of inhibition denaturation = (Absorbancecontrol − Absorbancesample) / Absorbancecontrol × 100
The control represents 100% protein denaturation.
Commercially available over-the-counter non-steroidal anti-inflammatory drugs diclofenac sodium and acetylsalicylic acid were used for comparison. Their anti-inflammatory effect was determined as a percentage of inhibition of albumin denaturation following the same protocol as for the novel compounds.

Rhizopus sp. = experiment: Antimicrobial activity, agar well diffusion; assay type: cell-based; conditions: Dose 0.6 mg/disk, dwell = 6 mm
From the text: (§2) Twenty tested microorganisms including six Gram-positive bacteria (Bacillus subtilis ATCC 6633, Bacillus amyloliquefaciens 4BCL-YT, Staphylococcus aureus ATCC 25923, Listeria monocytogenes NBIMCC 8632, Enterococcus faecalis ATCC 19433), six Gram-negative bacteria (Salmonella enteritidis ATCC 13076, Klebsiella sp.—clinical isolate, Escherichia coli ATCC 25922, Proteus vulgaris ATCC 6380, Pseudomonas aeruginosa ATCC 9027), two yeasts (Candida albicans NBIMCC 74, Saccharomyces cerevisiae ATCC 9763), and six fungi (Aspergillus niger ATCC 1015, Aspergillus flavus, Penicillium sp., Rhizopus sp., Mucor sp.—plant isolates, Fusarium moniliforme ATCC 38932) from the collection of the Department of Microbiology at the University of Food Technologies—Plovdiv, Bulgaria, were selected for the antimicrobial activity test. The antimicrobial activity of the samples was determined by the agar well diffusion method. The tested bacteria B. subtilis and B. amyloliquefaciens were cultured on LBG agar at 30 °C. The test bacteria S. aureus, L. monocytogenes, E. faecalis, S. enteritidis, Klebsiella sp., E. coli, P. vulgaris, and P. aeruginosa were cultured on LBG agar at 37 °C for 24 h. The yeast C. albicans was cultured on MEA at 37 °C, while S. cerevisiae was cultured on MEA at 30 °C for 24 h. The fungi A. niger, A. flavus, Penicillium sp., Rhizopus sp., Mucor sp., and F. moniliforme were grown on MEA at 30 °C for 7 days or until sporulation. The inocula of the tested bacteria/yeasts was prepared by homogenization of a small amount of biomass in 5 mL of sterile 0.5% NaCl. The inocula of tested fungi were prepared by the addition of 5 mL of sterile 0.5% NaCl into the tubes. After stirring by vortex V-1 plus (Biosan), they were filtered and replaced in other tubes before use. The number of viable cells and fungal spores was determined using a bacterial counting chamber Thoma (Poly-Optik, GmbH, Bad Blankenburg, Germany). Their final concentrations were adjusted to 10^8 cfu/mL for bacterial/yeast cells and 10^5 cfu/mL for fungal spores and then inoculated in preliminarily melted and tempered at 45–48 °C LBG/MEA agar media. Next, the inoculated media were transferred in a quantity of 18 mL in sterile Petri plates (d = 90 mm) (Gosselin™, Hazebrouck, France) and allowed to harden. Then, six wells (d = 6 mm) per plate were cut, and triplicates of 60 μL of each extract were pipetted into the agar wells. The Petri plates were incubated in identical conditions. The antimicrobial activity was determined by measuring the diameter of the inhibition zones around the wells on the 24th and 48th h of incubation. Tested microorganisms with inhibition zones of 18 mm or more were considered sensitive; moderately sensitive were those in which the zones were from 12 to 18 mm; resistant were those in which the inhibition zones were up to 12 mm or completely missing.

[2] = tested on: Escherichia coli ATCC 25922; experiment: Antimicrobial activity, agar well diffusion; assay type: cell-based; conditions: Dose 0.6 mg/disk, dwell = 6 mm
From the text: as §2

[3] = tested on: Micrococcus luteus 2YC-YT; experiment: Antimicrobial activity, agar well diffusion; assay type: cell-based; conditions: Dose 0.6 mg/disk, dwell = 6 mm
From the text: as §2

[4] = tested on: Salmonella enteritidis ATCC 13076; experiment: Antimicrobial activity, agar well diffusion; assay type: cell-based; conditions: Dose 0.6 mg/disk, dwell = 6 mm
From the text: as §2

Aspergillus flavus = experiment: Antimicrobial activity, agar well diffusion; assay type: cell-based; conditions: Dose 0.6 mg/disk, dwell = 6 mm
From the text: as §2

Penicillium chrysogenum = experiment: Antimicrobial activity, agar well diffusion; assay type: cell-based; conditions: Dose 0.6 mg/disk, dwell = 6 mm
From the text: as §2

[5] = tested on: Aspergillus niger ATCC 1015; experiment: Antimicrobial activity, agar well diffusion; assay type: cell-based; conditions: Dose 0.6 mg/disk, dwell = 6 mm
From the text: as §2

[6] = tested on: Pseudomonas aeruginosa ATCC 9027; experiment: Antimicrobial activity, agar well diffusion; assay type: cell-based; conditions: Dose 0.6 mg/disk, dwell = 6 mm
From the text: as §2

[7] = tested on: Bacillus subtilis ATCC 6633; experiment: Antimicrobial activity, agar well diffusion; assay type: cell-based; conditions: Dose 0.6 mg/disk, dwell = 6 mm
From the text: as §2

MTT cell viability assay [8] = assay type: cell-based, murine; conditions: mouse, CCL-1 normal fibroblast cells (adherent); CCL-1, MTT, 72 h exposure, ± SD; read-out: In vitro cytotoxicity IC50
Experimental: as §1

[9] = tested on: Bacillus amyloliquefaciens 4BCL-YT; experiment: Antimicrobial activity, agar well diffusion; assay type: cell-based; conditions: Dose 0.6 mg/disk, dwell = 6 mm
From the text: as §2

[10] = tested on: Proteus vulgaris ATCC 6380; experiment: Antimicrobial activity, agar well diffusion; assay type: cell-based; conditions: Dose 0.6 mg/disk, dwell = 6 mm
From the text: as §2

[11] = tested on: Salmonella typhimurium NBIMCC 1672; experiment: Antimicrobial activity, agar well diffusion; assay type: cell-based; conditions: Dose 0.6 mg/disk, dwell = 6 mm
From the text: as §2

[12] = tested on: Fusarium moniliforme ATCC 38932; experiment: Antimicrobial activity, agar well diffusion; assay type: cell-based; conditions: Dose 0.6 mg/disk, dwell = 6 mm
From the text: as §2

[13] = tested on: Listeria monocytogenes NBIMCC 8632; experiment: Antimicrobial activity, agar well diffusion; assay type: cell-based; conditions: Dose 0.6 mg/disk, dwell = 6 mm
From the text: as §2

[14] = tested on: Saccharomyces cerevisiae ATCC 9763; experiment: Antimicrobial activity, agar well diffusion; assay type: cell-based; conditions: Dose 0.6 mg/disk, dwell = 6 mm
From the text: as §2

[15] = tested on: Klebsiella pneumoniae ATCC 13883; experiment: Antimicrobial activity, agar well diffusion; assay type: cell-based; conditions: Dose 0.6 mg/disk, dwell = 6 mm
[16] = tested on: Enterococcus faecalis ATCC 29212; experiment: Antimicrobial activity, agar well diffusion; assay type: cell-based; conditions: Dose 0.6 mg/disk, dwell = 6 mm
[17] = tested on: Gram-positive bacteria, Gram-negative bacteria, yeasts and fungi; parameters: method as in PMID 36831141; conditions: same concentration range; cited from earlier work
[18] = tested on: K-562, LAMA-84, T-24, CCL-1 cell lines; parameters: method as in PMID 36831141; conditions: reference spasmolytic drug; cited from earlier work
[19] = K-562 myeloid leukemia cells (suspension), K-562, MTT
[20] = LAMA-84 myeloid leukemia cells (suspension), LAMA-84, MTT
[21] = T-24 urothelial bladder carcinoma cells (adherent), T-24, MTT

SMILES | IC50 at 72 h (MTT cell viability assay [1]; [19]) [µM] | IC50 at 72 h (MTT cell viability assay [1]; [20]) [µM] | IC50 at 72 h (MTT cell viability assay [1]; [21]) [µM] | IC50 (human albumin) [mM] | Inhibition Zones (Rhizopus sp.) [mm] | Inhibition Zones [2] [mm] | Inhibition Zones [3] [mm] | Inhibition Zones [4] [mm] | Inhibition Zones (Aspergillus flavus) [mm] | Inhibition Zones (Penicillium chrysogenum) [mm] | Inhibition Zones [5] [mm] | Inhibition Zones [6] [mm] | Inhibition Zones [7] [mm] | IC50 at 72 h (MTT cell viability assay [8]) [µM] | Inhibition Zones [10] [mm] | Inhibition Zones [12] [mm] | Inhibition Zones [13] [mm] | Inhibition Zones [14] [mm] | Inhibition Zones [15] [mm] | other results
O=C(Cc1ccccc1)Nc1ccccc1C(=O)NCCc1cccc(Cl)c1 [Compound 4c, N-(3-chlorophenethyl)-2-(2-phenylacetamido)benzamide] | 27.4 ± 2.4 | 31.6 ± 1.1 | > 200 | 1.71 | 8 | 10 | 12 | 8 | 8 | 8 | 10 | 10 | 9 | 69.5 ± 6.1 | – | – | – | – | – | –
O=C(Nc1ccccc1C(=O)NCCc1cccc(Cl)c1)c1ccccc1Cl [Compound 4d, 2-chloro-N-(2-((3-chlorophenethyl)carbamoyl)phenyl)benzamide] | 99.2 ± 8.8 | 183 ± 13.3 | > 200 | 1.67 | 9 | 12 | 12 | 10 | 11 | 15 | 10 | 10 | 11 | > 200 | 8 | 8 | 11 | 8 | 8 | Inhibition Zones [9]: 10 mm; Inhibition Zones [11]: 12 mm; Inhibition Zones [16]: 8 mm
O=C(NCCc1cccc(Cl)c1)c1ccccc1NC(=O)C(Cl)c1ccccc1 (centres unmarked) [Compound 4e, 2-(2-chloro-2-phenylacetamido)-N-(3-chlorophenethyl)benzamide] | 102 ± 7.9 | 193 ± 14.7 | 120 ± 9.9 | – | 9 | 10 | 9 | 11 | 8 | 8 | 10 | 10 | 10 | 69.1 ± 4.6 | 8 | 8 | 9 | 8 | 16 | –
CCN(CCCCOC(=O)c1ccc(OC)c(OC)c1)C(C)Cc1ccc(OC)cc1 (centres unmarked) [mebeverine] | – | – | – | – | – | – | – | – | – | – | – | – | – | – | – | – | – | – | – | antimicrobial activity (overall, in words) [17]: did not show any antimicrobial activity; half-inhibitory concentrations [18]: under the hundred-micromolar range
